Active and inactive are the calls of the source. The rule behind the calls is not given here.
Key:
[1] = Cytotoxicity against human HepAD38 cells measured after 72 hrs by CCK-8 assay; type: toxicity, cell-based
Hepatitis B virus [2] = assay: Antiviral activity against HBV gene expressed in human HePAD38 cells assessed as inhibition of HBV DNA replication by quantitative PCR analysis; type: functional, organism-based
[3] = Selectivity index, ratio of CC50 for human HepAD38 cells to IC50 for antiviral activity against HBV gene expressed in human HepAD38 cells assessed as inhibition of HBV DNA replication; type: toxicity, cell-based; details: read-out: Selectivity Index
[4] = Stability in human plasma assessed as compound remaining measured after 30 mins by LC-MS/MS analysis; type: ADME, cell-free; details: read-out: Stability
[5] = Stability in human plasma assessed as half life by LC-MS/MS analysis; type: ADME, cell-free
[6] = Stability in human plasma assessed as compound remaining measured after 10 mins by LC-MS/MS analysis; type: ADME, cell-free; details: read-out: Stability
[7] = Stability in human plasma assessed as compound remaining measured after 60 mins by LC-MS/MS analysis; type: ADME, cell-free; details: read-out: Stability
[8] = Metabolic stability in human liver microsomes assessed as intrinsic clearance measured per mg of microsomal protein upto 60 mins by LC-MS/MS analysis; type: ADME, Microsome; details: read-out: CLH
[9] = Metabolic stability in human liver microsomes assessed as intrinsic clearance (liver) upto 60 mins by LC-MS/MS analysis; type: ADME, Microsome; details: read-out: CLH
Hepatitis B virus [10] = assay: Antiviral activity against HBV infected in human HLCZ01 cells assessed as inhibition of HBV replication by measuring HBsAg treated for 6 days by ELISA; type: functional, organism-based; details: time 6.0 day
Hepatitis B virus [11] = assay: Antiviral activity against HBV infected in human HLCZ01 cells assessed as inhibition of HBV replication by measuring HBV DNA treated for 6 days by qPCR analysis; type: functional, organism-based; details: HLCZ01, 144 h
[12] = Half life in Sprague-Dawley rat at 20 mg/kg, po measured upto 24 hrs by LC-MS/MS analysis; type: ADME, organism-based; details: in vivo
[13] = Metabolic stability in human liver microsomes assessed as compound remaining after 60 mins in presence of NADPH by LC-MS/MS analysis; type: ADME, Microsome; details: read-out: Stability
[14] = AUC (0 to t) in Sprague-Dawley rat at 2 mg/kg, iv measured upto 24 hrs by LC-MS/MS analysis; type: ADME, organism-based; details: in vivo
[15] = MRT (0 to infinity) in Sprague-Dawley rat at 20 mg/kg, po measured upto 24 hrs by LC-MS/MS analysis; type: ADME, organism-based; details: in vivo
[16] = MRT (0 to t) in Sprague-Dawley rat at 2 mg/kg, iv measured upto 24 hrs by LC-MS/MS analysis; type: ADME, organism-based; details: in vivo
[17] = Half life in Sprague-Dawley rat at 2 mg/kg, iv measured upto 24 hrs by LC-MS/MS analysis; type: ADME, organism-based; details: in vivo
[18] = MRT (0 to t) in Sprague-Dawley rat at 20 mg/kg, po measured upto 24 hrs by LC-MS/MS analysis; type: ADME, organism-based; details: in vivo
[19] = Metabolic stability in human liver microsomes assessed as half life by LC-MS/MS analysis; type: ADME, Microsome
[20] = Lipophilic-hydrophilic partition coefficient logP of compound; type: physicochemical; details: octanol/water
[21] = Stability in human plasma assessed as compound remaining measured immediately by LC-MS/MS analysis; type: ADME, cell-free; details: read-out: Stability
[22] = Volume of distribution at steady state in Sprague-Dawley rat at 2 mg/kg, iv measured upto 24 hrs by LC-MS/MS analysis; type: ADME, organism-based; details: in vivo, read-out: Vdss
[23] = Cytotoxicity against human HLCZ01 cells assessed as cell viability measured after 72 hrs by CCK-8 assay; type: toxicity, cell-based
[24] = Selectivity index, ratio of CC50 for human HLCZ01 cells to IC50 for antiviral activity against HBV infected in human HLCZ01 cells assessed as inhibition of HBV replication by measuring HBV DNA treated for 6 days by qPCR analysis; type: toxicity, cell-based; details: time 6 day, read-out: Selectivity Index
[25] = Metabolic stability in human liver microsomes assessed as compound remaining after 60 mins in absence of NADPH (NCF) by LC-MS/MS analysis; type: ADME, Microsome; details: read-out: Stability
[26] = AUC (0 to t) in Sprague-Dawley rat at 20 mg/kg, po measured upto 24 hrs by LC-MS/MS analysis; type: ADME, organism-based; details: in vivo
[27] = MRT (0 to infinity) in Sprague-Dawley rat at 2 mg/kg, iv measured upto 24 hrs by LC-MS/MS analysis; type: ADME, organism-based; details: in vivo
[28] = Cmax in Sprague-Dawley rat at 20 mg/kg, po measured upto 24 hrs by LC-MS/MS analysis; type: ADME, organism-based; details: in vivo
[29] = AUC (0 to infinity) in Sprague-Dawley rat at 20 mg/kg, po measured upto 24 hrs by LC-MS/MS analysis; type: ADME, organism-based; details: in vivo
Hepatitis B virus [30] = assay: In vivo antiviral activity against HBV infected male C57BL/6J mouse by hydrodynamic injection (HDI) of pAAV-HBV1.2 assessed as decrease in HBV DNA in serum at 5 mg/kg/day, po measured after 20 days by qPCR analysis; type: functional, organism-based; details: time 20.0 day
[31] = Stability in human plasma assessed as compound remaining measured after 120 mins by LC-MS/MS analysis; type: ADME, cell-free; details: read-out: Stability
[32] = Clearance in Sprague-Dawley rat at 2 mg/kg, iv measured upto 24 hrs by LC-MS/MS analysis; type: ADME, organism-based; details: in vivo
[33] = Oral bioavailability in Sprague-Dawley rat at 2 mg/kg, iv measured upto 24 hrs by LC-MS/MS analysis; type: ADME, organism-based; details: in vivo
[34] = Tmax in Sprague-Dawley rat at 20 mg/kg, po measured upto 24 hrs by LC-MS/MS analysis; type: ADME, organism-based; details: in vivo
[35] = AUC (0 to infinitive) in Sprague-Dawley rat at 2 mg/kg, iv measured upto 24 hrs by LC-MS/MS analysis; type: ADME, organism-based; details: in vivo

O=C(Nc1cc(F)c(F)c(F)c1)c1cc(S(=O)(=O)NC2CCC(O)CC2)c(F)cc1-c1ccc2c(c1)OCO2 (stereo unspecified)
CC50 at 72 h [1]: 82.4 µM | EC50 (Hepatitis B virus [2]): > 4 µM | selectivity ratio [3]: < 20.6

CCNC(=S)Nc1cc(C(=O)Nc2cc(F)c(F)c(F)c2)c(C2CC2)cc1F
CC50 at 72 h [1]: 21.2 µM | EC50 (Hepatitis B virus [2]): 0.091 µM | selectivity ratio [3]: 233

O=C(Nc1cc(C(=O)Nc2cc(F)c(F)c(F)c2)c(C2CC2)cc1F)c1cccs1
CC50 at 72 h [1]: 20.9 µM | EC50 (Hepatitis B virus [2]): 0.5 µM | selectivity ratio [3]: 41.8

CC(C)[N+](C)(CCOC(=O)C1c2ccccc2Oc2ccccc21)C(C)C.[Br-] [PROPANTHELINE BROMIDE]
remaining at 0.5 h [4]: 18.9% | half-life [5]: 0.162 h | remaining at 10 min [6]: 70.1% | remaining at 1 h [7]: 1.5%

CC(C)NC(=S)Nc1cc(C(=O)Nc2cc(F)c(F)c(F)c2)c(C2CC2)cc1F
CC50 at 72 h [1]: 16.8 µM | EC50 (Hepatitis B virus [2]): 0.033 µM | selectivity ratio [3]: 510

O=C(Nc1cc(F)c(F)c(F)c1)c1cc(S(=O)(=O)NC2CCCC2)c(F)cc1-c1cccs1
CC50 at 72 h [1]: 15 µM | EC50 (Hepatitis B virus [2]): 4 µM | selectivity ratio [3]: 3.75

O=C(Nc1cc(F)c(F)c(F)c1)c1cc(NC(=S)NC2CCCC2)c(F)cc1C1CC1
CC50 at 72 h [1]: 4.66 µM | EC50 (Hepatitis B virus [2]): 0.026 µM | selectivity ratio [3]: 179

C[C@]12CC[C@H]3[C@@H](CCC4=CC(=O)CC[C@@]43C)[C@@H]1CC[C@@H]2O [TESTOSTERONE]
microsomal CLint [8]: 74.5 µL/min/mg | CLint scaled [9]: 67 mL/min/kg

CC(C)NC(=O)/C=C/c1c(S(=O)(=O)N2CCOCC2)ccc(F)c1C(=O)Nc1cc(F)c(F)c(F)c1
CC50 at 72 h [1]: 24.2 µM | EC50 (Hepatitis B virus [2]): > 4 µM | selectivity ratio [3]: < 6.04

O=C(/C=C/c1c(S(=O)(=O)N2CCOCC2)ccc(F)c1C(=O)Nc1cc(F)c(F)c(F)c1)OCCO
CC50 at 72 h [1]: > 100 µM | EC50 (Hepatitis B virus [2]): > 4 µM

O=C(Nc1cc(F)c(F)c(F)c1)c1cc(S(=O)(=O)NC2CCCC2)c(F)cc1-c1ccsc1
CC50 at 72 h [1]: 1.16 µM | EC50 (Hepatitis B virus [2]): > 4 µM | selectivity ratio [3]: < 0.29

CCOC(=O)C1=C(CN2CCOCC2)NC(c2nccs2)=N[C@H]1c1ccc(F)cc1Br
EC50 (Hepatitis B virus [2]): 0.022 µM

O=C(Nc1cc(F)c(F)c(F)c1)c1cc(NC(=O)C2CC2)c(F)cc1C1CC1
CC50 at 72 h [1]: 88.2 µM | EC50 (Hepatitis B virus [2]): 1.48 µM | selectivity ratio [3]: 59.6

CC(NC(=S)Nc1cc(C(=O)Nc2cc(F)c(F)c(F)c2)c(C2CC2)cc1F)C(F)(F)F (stereo unspecified)
CC50 at 72 h [1]: 3.86 µM | EC50 (Hepatitis B virus [2]): 0.029 µM | selectivity ratio [3]: 133

CC(C)N(C)C(=S)Nc1cc(C(=O)Nc2cc(F)c(F)c(F)c2)c(C2CC2)cc1F
Activity (Hepatitis B virus [10]): Active | EC50 (Hepatitis B virus [11]): 0.012 µM | CC50 at 72 h [1]: > 100 µM | half-life [12]: 2.87 h | remaining at 1 h [13]: 3.2% | remaining at 0.5 h [4]: 91.6% | AUC(0-t) at 24 h [14]: 1180 ng·h/mL | half-life [5]: > 4.82 h | MRT inf [15]: 4.42 h | MRT last at 24 h [16]: 1.09 h | half-life [17]: 1.62 h | MRT last at 24 h [18]: 4.35 h | half-life [19]: 0.205 h | logP [20]: > 5 | microsomal CLint [8]: 113 µL/min/mg | EC50 (Hepatitis B virus [2]): 0.033 µM | remaining at 0 min [21]: 100% | Vd [22]: 2.1 L/kg | CC50 at 72 h [23]: 119 µM | selectivity ratio at 144 h [24]: 9920 | remaining at 1 h [25]: 99% | AUC(0-t) at 24 h [26]: 3440 ng·h/mL | MRT inf [27]: 1.24 h | remaining at 10 min [6]: 97.5% | Cmax [28]: 748 ng/mL | selectivity ratio [3]: > 3030 | AUC(0-inf) [29]: 3450 ng·h/mL | Activity (Hepatitis B virus [30]): Active | remaining at 2 h [31]: 82.3% | clearance [32]: 28.2 mL/min/kg | bioavailability [33]: 28.9% | CLint scaled [9]: 102 mL/min/kg | Tmax [34]: 0.67 h | AUC(0-inf) [35]: 1200 ng·h/mL | remaining at 1 h [7]: 87.6%

O=C(Nc1cc(F)c(F)c(F)c1)c1ccc(F)c(S(=O)(=O)N2CCC(O)CC2)c1
selectivity ratio [3]: 47.6

O=C(Nc1cc(F)c(F)c(F)c1)c1cc(NC(=S)NC2CC2)c(F)cc1C1CC1
CC50 at 72 h [1]: > 100 µM | EC50 (Hepatitis B virus [2]): 0.2 µM | selectivity ratio [3]: > 500

O=C(O)Cc1ccccc1Nc1c(Cl)cccc1Cl [DICLOFENAC]
half-life [19]: 0.11 h | microsomal CLint [8]: 211 µL/min/mg | CLint scaled [9]: 190 mL/min/kg

O=C(Nc1cc(F)c(F)c(F)c1)c1cc(S(=O)(=O)NC2CCC(O)CC2)c(F)cc1-c1ccsc1 (stereo unspecified)
CC50 at 72 h [1]: 82.4 µM | EC50 (Hepatitis B virus [2]): > 4 µM | selectivity ratio [3]: < 20.6

O=C(Nc1cc(F)c(F)c(F)c1)c1cc(NC(=O)C2CCCC2)c(F)cc1C1CC1
CC50 at 72 h [1]: > 100 µM | EC50 (Hepatitis B virus [2]): 0.48 µM | selectivity ratio [3]: > 208

N#Cc1ccc(C(=O)Nc2cc(C(=O)Nc3cc(F)c(F)c(F)c3)c(C3CC3)cc2F)cc1
CC50 at 72 h [1]: 4.5 µM | EC50 (Hepatitis B virus [2]): 0.42 µM | selectivity ratio [3]: 10.7

C=CCNC(=S)Nc1cc(C(=O)Nc2cc(F)c(F)c(F)c2)c(C2CC2)cc1F
CC50 at 72 h [1]: 16.7 µM | EC50 (Hepatitis B virus [2]): 0.11 µM | selectivity ratio [3]: 151

O=C(Nc1cc(F)c(F)c(F)c1)c1cc(S(=O)(=O)NC2CCCC2)c(F)cc1C1CC1
CC50 at 72 h [1]: 34 µM | EC50 (Hepatitis B virus [2]): 0.65 µM | selectivity ratio [3]: 52.3

COC(=O)/C=C/c1c(S(=O)(=O)N2CCOCC2)ccc(F)c1C(=O)Nc1cc(F)c(F)c(F)c1
CC50 at 72 h [1]: > 100 µM | EC50 (Hepatitis B virus [2]): > 4 µM

O=C(Nc1cc(F)c(F)c(F)c1)c1cc(S(=O)(=O)NC2CCC(O)CC2)c(F)cc1-c1ccccc1 (stereo unspecified)
CC50 at 72 h [1]: 49.7 µM | EC50 (Hepatitis B virus [2]): > 4 µM | selectivity ratio [3]: < 12.4
